Data set [1] concerns Ro 4-1284-induced hypothermia. Briefly: Antagonism to Ro 4-1284-induced hypothermia. Particulars: male mice, Ro 4-1284 20 mg/kg i.p.; for ED50: Mus musculus, ip. It is filed as in vivo. Here is the method:
Another assay utilized to evaluate antidepressant activity is testing for the antagonism to Ro 4-1284*--induced hypothermia. (*Niemegeers, Carlos, J. E. "Antagonism of Reserpine--Like Activity", edited by S. Fielding and Lal, published by Futura, pg. 73-98.) In this test, groups of male mice are weighed and housed individually in wire mesh cages. The rectal temperature of each mouse is recorded and the test compound or vehicle is then administered. […] Mice are then placed in a cold room (36° F.) for 30 minutes, and then returned to room temperature for 30 minutes. At this time (60 minutes after Ro 4-1284 administration) the rectal temperature of each mouse is again recorded. […] The final temperatures of control groups of ten Ro 4-1284-treated mice from a number of experiments are combined to form an "historic control" of 100 mice. This control is updated periodically by replacement of the oldest data.

The subject of data set [2] is reserpine-induced ptosis. Briefly: Prevention of reserpine-induced ptosis in mice. It counts as in vivo. Particulars: Mus musculus, iv, reserpine 2 mg/kg i.v. Here is the method:
In this assay, test groups of weighed mice are housed individually in wire mesh cages and administered test compound or vehicle. At a selected time thereafter, reserpine is administered as a 0.2 mg/ml solution in dilute acetic acid at a dose of 2 mg/kg intravenously into a tail vein. In each assay the animals are examined individually in a Plexiglas® cylinder 90 minutes later. Prevention or delay in ptosis is considered significant if the average closure of both eyes is less than 50% after observing for 30 seconds.

The nature of data set [3]: LD50. Particulars: in vivo; Table I; species and route not given. The source says:
The results of testing a number of compounds of formula I for the effects summarized above, as well as their LD50, are summarized in Table I.

The subject of data set [4] is depression; neurodegeneration. Particulars: prior art compound; cited from earlier work.
A short description of data set [5]: Metabolite identification in the urine of test animals.
The mark [6] stands for this setting: Table I, two determinations listed separately where marked *, read-out: Ro 4-1284 Induced Hypothermia ED50.
[7] abbreviates: Table I, pre-treatment time and route of test compound not given, read-out: Reserpine-Induced Ptosis ED50.
Where [8] appears, read: 1 h, 60 minute pre-treatment time, i.p., read-out: ED50 for antagonism of Ro 4-1284-induced hypothermia.
[9] abbreviates: 1 h, 60 minute pre-treatment time, read-out: ED50 for prevention of reserpine-induced ptosis.

Where two headings read alike, the source gives them in different places.

For orientation: ED50 means the dose at which the effect has come halfway, by size or by number of responders. As a reminder, the LD50 is the dose expected to kill half of the subjects tested. The low end stands for a more toxic substance, the high end for a less toxic substance. `Cn1c[n+](C)nc1-c1ccc(Br)cc1` [Rn 4-Br--]: the ED50 in data set [1] (setting [6]) is 0.81 mg/kg; in data set [2] (setting [7]), 0.23 mg/kg. This compound also registered an LD50 in data set [3] of 200 to 400 mg/kg.

Regarding `CN(C)CCCN1c2ccccc2CCc2ccccc21` [imipramine, reference compound], the ED50 in data set [1] (setting [8]) was determined as 1.8 mg/kg; in data set [2] (setting [9]), 4.89 mg/kg.

For the compound `Cn1nc(-c2cccc(F)c2)n(C)c1=S` [5-(3-fluorophenyl)-2,4-dimethyl-3H-1,2,4-triazole-3-thione], in data set [4], the “known antidepressant and neuroprotective activity” value was “antidepressant activity as well as activity in tests indicative of protection from neurodegeneration”.

As for `Cn1c[n+](C)nc1-c1ccc(Cl)cc1` [Rn 4-Cl--, 3-(4-chlorophenyl)-1,4-dimethyl-1,2,4-triazolium hydrosulfate], the ED50 in data set [1] (setting [6]) was 0.51 mg/kg; in data set [2] (setting [9]), 0.09 mg/kg; in data set [2] (setting [7]), 0.09 mg/kg. In data set [3], this compound gave an LD50 of 100 to 200 mg/kg.

As to `Cn1c[n+](C)nc1-c1ccccc1F` [Rn 2-F--], the ED50 in data set [1] (setting [6]) is 0.74 mg/kg; in data set [2] (setting [7]) it was 0.28 mg/kg. Also, the “Ro 4-1284 Induced Hypothermia ED50” value in data set [1] (Table I, two determinations listed separately where marked *, 20 mg/kg) is 0.58 mg/kg. Further, the LD50 in data set [3] lay in the range of 100 to 200 mg/kg.

Turning to `COc1c(F)cccc1-c1n[n+](C)cn1C` [3-F-2-CH3 O--], the 50% effective dose (ED50) came out at 2 mg/kg in data set [1] (setting [6]) and 1.31 mg/kg in data set [2] (setting [7]). This compound also yielded a median lethal dose (LD50) in data set [3] of 100 to 200 mg/kg.

Regarding `CC(Cc1ccccc1)NN` (stereo not drawn) [catron, reference compound], the ED50 in data set [1] (setting [8]) was 0.7 mg/kg.

As to `Cn1c[n+](C)nc1-c1cccc(F)c1` [Rn 3-F--, 3-(3-Fluorophenyl)-1,4-dimethyl-1,2,4-triazolium hydrosulfate], the ED50 in data set [1] (setting [8]) came out at 0.34 mg/kg; in data set [1] (setting [6]), 0.34 mg/kg; in data set [2] (setting [7]) it was 0.19 mg/kg. In data set [3], the median lethal dose (LD50) was 200 to 400 mg/kg.

Regarding `Cn1c[n+](C)nc1-c1c(F)cccc1F` [2,6-F2 --], the results for the ED50 in data set [1] (setting [6]) and in data set [2] (setting [7]) were 0.58 mg/kg and 5.34 mg/kg, respectively. Besides, in data set [3], the LD50 was 100 to 200 mg/kg.

Regarding `Cn1c[n+](C)nc1-c1ccc(I)cc1` [Rn 4-I--], the median effective dose (ED50) is more than 6.25 mg/kg in data set [1] (setting [6]) and 2.82 mg/kg in data set [2] (setting [7]). In data set [3], the median lethal dose (LD50) fell in the range of 100 to 200 mg/kg.

`Cn1c[n+](C)nc1-c1cccc(F)c1` [3-(3-fluorophenyl)-1,4-dimethyl-1,2,4-triazolium ion]: in data set [5], the “urinary metabolite of 5-(3-fluorophenyl)-2,4-dimethyl-3H-1,2,4-triazole-3-thione” value was “identified in the urine of test animals as a metabolite”.

Consider `COc1ccccc1-c1n[n+](C)cn1C` [2-CH3 O--], for which the ED50 in data set [1] (setting [6]) is more than 3.12 mg/kg; in data set [2] (setting [7]), more than 12.5 mg/kg. In data set [3], this compound came in with a median lethal dose (LD50) of 50 to 100 mg/kg.

In the case of `CNCCCN1c2ccccc2CCc2ccccc21` [desipramine, reference compound], the ED50 in data set [1] (setting [8]) came out at 0.1 mg/kg.

These data come from patent US5856350A, “3-phenyl-1,4-dialkyl-1,2,4-triazolium salts and their use as antidepressants” (Hoechst Marion Roussel, Inc., priority 1996, dated 1999).
